Like-named read-outs stand apart in the source and are kept apart here.
Tests used:
Format in all cases: cell-based, human
SMMC-7721 cells [1] = test: Annexin V-FITC/PI cell apoptosis assay (flow cytometry); conditions: SMMC-7721, 48 h; BCP 150 µM, DOXL 0.2 µM, DOXH 1.5 µM, DDPL 5 µM, DDPH 30 µM
Procedure: (§1) The cell apoptosis assay was performed as previously described ([Zhong et al., 2019]; [Farooq et al., 2023]). […] Ltd., Nanjing, China). The cells were analyzed using flow cytometer (BECKMAN COULTER, cytoFLEX, United States).

HL-7702 cells = test: as above; conditions: HL-7702, 48 h, BCP 150 µM, DOXL 0.2 µM, DOXH 1.5 µM, DDPL 5 µM, DDPH 30 µM
Procedure: as §1

HepG2 cells [2] = test: as above; conditions: HepG2, 48 h; BCP 150 µM, DOXL 0.2 µM, DOXH 1.5 µM, DDPL 5 µM, DDPH 30 µM
Procedure: as §1

[3] = system: HL-7702 normal liver cells; test: CCK8 cell viability assay; conditions: for effect of combination with BCP (isobologram analysis): HL-7702, BCP 25-150 μM combined with DOX or DDP; for IC50: HL-7702, 48 h, individual treatment, read-out: IC50 (half maximal inhibitory concentration)
Procedure: (§2) Cell viability assay using the CCK8 reagent (Bimake, Shanghai, China) was conducted according to the manufacturer’s instructions. The cell proliferation data were used to calculate the cell viability. Briefly, HepG2, SMMC-7721, and HL-7702 cells with a density of 5 × 10^3 cells/well were seeded into each well of 96-well plates and incubated overnight. […] After 48 h, 10 µL of CCK8 reagent was added to each well, followed by 2 h incubation at 37°C and measurement of absorbance at 450 nm using a microplate reader (Molecular Devices, LLC.). […] The effects of the combinatorial inhibition were visualized by isobologram analyses ([Tallarida, 2001]). […] A line was drawn to link the two IC50 points. […] The dots above, on, or below the line indicate the “antagonistic,” “additive” and “synergistic” effects, respectively. The same method was used to obtain the CI value for the cotreatment of BCP and DDP.

SMMC-7721 cells [4] = test: CCK8 cell viability assay; conditions: for IC50: SMMC-7721, 48 h, individual treatment, read-out: IC50 (half maximal inhibitory concentration); for effect of combination with BCP (isobologram analysis): SMMC-7721, BCP 25-150 μM combined with DOX or DDP
Procedure: as §2

HepG2 cells [5] = test: CCK8 cell viability assay; conditions: for effect of combination with BCP (isobologram analysis): HepG2, BCP 25-150 μM combined with DOX or DDP; for IC50: HepG2, 48 h, individual treatment, read-out: IC50 (half maximal inhibitory concentration)
Procedure: as §2

[6] = SMMC-7721, cotreatment with 25 μM BCP
[7] = SMMC-7721, cotreatment with 50 μM BCP
[8] = SMMC-7721, cotreatment with 75 μM BCP
[9] = SMMC-7721, cotreatment with 100 μM BCP
[10] = SMMC-7721, cotreatment with 150 μM BCP
[11] = HepG2, cotreatment with 25 μM BCP
[12] = HepG2, cotreatment with 50 μM BCP
[13] = HepG2, cotreatment with 75 μM BCP
[14] = HepG2, cotreatment with 100 μM BCP
[15] = HepG2, cotreatment with 150 μM BCP

| Structure (SMILES) | apoptotic rate (SMMC-7721 cells [1]) | apoptotic rate (HepG2 cells [2]) | effect of combination with BCP (isobologram analysis) [3] | effect of combination with BCP (isobologram analysis) (SMMC-7721 cells [4]) | combination index (CI) (SMMC-7721 cells [4]; [6]) | combination index (CI) (SMMC-7721 cells [4]; [7]) | combination index (CI) (SMMC-7721 cells [4]; [8]) | combination index (CI) (SMMC-7721 cells [4]; [9]) | combination index (CI) (SMMC-7721 cells [4]; [10]) | effect of combination with BCP (isobologram analysis) (HepG2 cells [5]) | combination index (CI) (HepG2 cells [5]; [11]) | combination index (CI) (HepG2 cells [5]; [12]) | combination index (CI) (HepG2 cells [5]; [13]) | combination index (CI) (HepG2 cells [5]; [14]) | combination index (CI) (HepG2 cells [5]; [15]) | other results |
| --- | --- | --- | --- | --- | --- | --- | --- | --- | --- | --- | --- | --- | --- | --- | --- | --- |
| COc1cccc2c1C(=O)c1c(O)c3c(c(O)c1C2=O)C[C@@](O)(C(=O)CO)C[C@@H]3O[C@H]1C[C@H](N)[C@H](O)[C@H](C)O1 [DOX, doxorubicin] | 8.74% ± 1.32% | 13.40% ± 0.65% | additive | synergistic | 0.48 | 0.53 | 0.50 | 0.55 | 0.65 | synergistic | 0.53 | 0.58 | 0.56 | 0.65 | 0.85 | apoptotic rate (HL-7702 cells; listed as DOXH): 33.83% ± 1.27%; apoptotic rate (HL-7702 cells; listed as DOXL): 13.04% ± 0.57%; IC50 ([3]; Homo sapiens, L02): 0.82 ± 0.09 µM; IC50 (SMMC-7721 cells [4]; Homo sapiens): 1.76 ± 0.13 µM; IC50 (HepG2 cells [5]; Homo sapiens): 1.99 ± 0.2 µM |
| N.N.[Cl][Pt][Cl] [DDP, cisplatin] | 7.67% ± 0.46% | 11.40% ± 0.52% | additive | synergistic | 0.59 | 0.57 | 0.52 | 0.51 | 0.58 | synergistic | 0.74 | 0.71 | 0.66 | 0.68 | 0.88 | apoptotic rate (HL-7702 cells; listed as DDPH): 28.52% ± 1%; apoptotic rate (HL-7702 cells; listed as DDPL): 17.86% ± 0.69%; IC50 [3]: 11.5 ± 0.82 µM; combination index (CI) ([3]; HL-7702, cotreatment with 25 μM BCP): 1.04; combination index (CI) ([3]; HL-7702, cotreatment with 50 μM BCP): 0.95; combination index (CI) ([3]; HL-7702, cotreatment with 75 μM BCP): 1.01; combination index (CI) ([3]; HL-7702, cotreatment with 100 μM BCP): 0.89; combination index (CI) ([3]; HL-7702, cotreatment with 150 μM BCP): 0.92; fold reduction of IC50 in cotreatment from individual treatment ([3]; HL-7702, cotreatment with 150 μM BCP vs DOX or DDP alone): less than 1.5 fold; IC50 (SMMC-7721 cells [4]): 33.7 ± 1.43 µM; fold lower IC50 in cotreatment than in treatment alone (SMMC-7721 cells [4]; SMMC-7721, cotreatment with 150 μM BCP vs DOX or DDP alone): over 9 fold; IC50 (HepG2 cells [5]): 27.4 ± 2.59 µM; fold lower IC50 in cotreatment than in treatment alone (HepG2 cells [5]; HepG2, cotreatment with 150 μM BCP vs DOX or DDP alone): over 9 fold |

— paper PMC11671526, “β-caryophyllene sensitizes hepatocellular carcinoma cells to chemotherapeutics and inhibits cell malignancy through targeting MAPK signaling pathway” (Frontiers in Pharmacology, 2024)
